Measured values published in patent US20260091050A1, “ADVANTAGEOUS ANTI-HCV COMBINATION THERAPY” (Atea Pharmaceuticals, Inc., priority 2021, published 2026).

Columns and labels:
[1] = molecular target: human mitochondrial RNA-dependent RNA polymerase (POLRMT) (Homo sapiens, UniProt O00411); test: Incorporation of nucleotide analog triphosphates by human mitochondrial RNA polymerase; format: biochemical
Experimental: The incorporation of these analogs by human mitochondrial RNA-dependent RNA polymerase (POLRMT) were determined according to Arnold et al. (Sensitivity of Mitochondrial Transcription and Resistance of RNA Polymerase II Dependent Nuclear Transcription to Antiviral Ribonucleotides. PLoS Pathog., 2012, 8, e1003030).

[2] = Storage stability of Compound 1 forms and amorphous salts at 25° C./60% RH for 14 days (HPLC, observation); details: for Stability on storage: 14 days (2 weeks) at 25° C./60% RH
Experimental: This initial characterization was followed by storage at 25° C./60% relative humidity (RH) for 14 days with analysis by HPLC and XRPD after 7 and 14 days. FIG. 4A is the XRPD after 14 days at 25° C./60% (RH).
The samples were then frozen with the solvent removed by lyophilization.
The samples were then subjected to storage at 25° C./60% relative humidity (RH) for 14 days with analysis by HPLC and XRPD after 7 (FIG. 4B) and 14 days (FIG. 5A).

[3] = system: GT1 HCV; test: Single ascending dose study of Compound 1-A in GT1-HCV infected patients (Part B); format: in vivo, human; details: GT1-HCV infected patients, Compound 1-A 300 mg (second 300 mg line), median (range)
Experimental: Subjects in Part B received a single dose of Compound 1-A in the fasting state. Patients were confined to the clinic from Day −1 to Day 6.
Part B was initiated after the safety (through Day 5) and plasma pharmacokinetic (through 24 h) data review from Cohort 3a in Part A. Available safety data (through Day 5) and pharmacokinetic data (through 24 h) was reviewed for the first cohort in Part B (Cohort 1b) before enrolling subsequent Part B cohorts. Subsequent Part B cohorts were only dosed following review of available safety and pharmacokinetic data from the respective doses in Part A as well as available safety (through Day 5) from the prior Part B cohorts.
Patients infected with HCV were treatment-naïve, non-cirrhotic GT1-infected subjects with a viral load of ≥5 log10 IU/mL.
Baseline was defined as the mean of Day −1 and Day 1 (pre-dose). […] The mean maximum HCV RNA reduction 24 hours post-dose following a single 300 mg dose was 1.7 log10 IU/mL and this compares to a −2 log 10 IU/mL reduction after 1 day of 400 mg of sofosbuvir monotherapy in GT1a HCV-infected subjects. The mean maximum HCV RNA reduction 24 hours post-dose following a single 100 mg dose was 0.8 log10 IU/mL. The mean 10 maximum HCV RNA reduction was 2.2 log10 IU/mL following a single 400 mg dose.

[4] = system: GT3 HCV; test: 600 mg QD for 7 days in non-cirrhotic GT3 HCV-infected patients (Part D); format: in vivo, human; details: 600 mg QD, Part D
Experimental: (§1) Doses were administered as the Compound 1-A salt base. The free base Compound 1 equivalent is often given in parenthesis.
(§2) Part C was a randomized, double-blind, placebo-controlled MAD study divided into three cohorts. […] The dose escalation only proceeded following satisfactory review of the data.
(§3) HCV-infected patients were treatment-naïve with HCV RNA ≥5 log 10 IU/mL. HCV RNA was quantified using COBAS® AmpliPrep TaqMAN® v2.0 with LLQ of 15 IU/mL. Plasma drug levels were measured using LC-MS/MS. […] Mean ages of enrolled subjects were 44, 39, and 56 years in the non-cirrhotic GT1b 600 mg dose cohort, non-cirrhotic GT3 cohort, and the cirrhotic cohort, respectively.

[5] = system: GT1 HCV; test: Multiple dose study, 7 days QD, non-cirrhotic GT1 HCV-infected patients (Part C); format: in vivo, human
Experimental: as §1, §2, §3

[6] = Three-part study (Parts C, D, E) of Compound 1-A: overall safety/tolerability and pharmacokinetics; format: in vivo, human; details: for AUC: human, plasma, oral, Part C
Experimental: as §2
HCV-infected patients were treatment-naïve with HCV RNA ≥5 log 10 IU/mL. […] Plasma drug levels were measured using LC-MS/MS.

[7] = Single ascending dose study of Compound 1-A in healthy volunteers (Part A); format: in vivo, human; details: healthy subjects, single dose of Compound 1-A 400 mg, median (range)
Experimental: Compound 1-A was tested in a single ascending dose (SAD) study to measure its safety, tolerability, and pharmacokinetic in healthy subjects (Part A). Part A was a randomized, double-blind, placebo-controlled SAD study. Healthy subjects in Part A received a single dose of Compound 1-A or placebo in the fasting state. Subjects were confined to the clinic from Day −1 to Day 6.
Dosing in each cohort was staggered such that 2 subjects (1 active:1 placebo) were evaluated for 48 hours after dosing before the remainder of the cohort was dosed. Each cohort received Compound 1-A in ascending order. Dosing of sequential cohorts occurred based on review of available safety data (through Day 5) and plasma pharmacokinetic data (through 24 h) of the prior cohort.
As pharmacokinetic and safety data emerged from prior cohorts, doses evaluated in Cohorts 3a-4a were adjusted by increments no more than 100 mg.
Healthy volunteers in the Part A portion of the study were male and female subjects between the ages of 18 and 65. Active and placebo recipients were pooled within each Part A cohort to preserve the study blind.

[8] = Plasma profiles of Compound 1 and metabolite 1-7 after single oral doses of Compound 1-A, cynomolgus monkeys; format: in vivo; details: monkey
[9] = system: GT1, GT2, or GT3 HCV; test: 600 mg QD for 7 days in Child-Pugh A cirrhotic patients with GT1, GT2 or GT3 HCV (Part E); format: in vivo, human
Experimental: Doses were administered as the Compound 1-A salt base. The free base Compound 1 equivalent is often given in parenthesis. […]
as §3

[10] = Plasma profiles of Compound 1 and metabolite 1-7 after single oral dose of Compound 1-A, Sprague-Dawley rats; format: in vivo; details: rat, single oral dose of Compound 1-A 500 mg/kg (0.5% CMC, 0.5% Tween 80 in water)
[11] = system: replicons containing the NS5B sequences from HCV patient plasma samples (GT1a, 1b, 2a, 2b, 3a-1, 3a-2, 4a and 4d); test: Replicons containing NS5B sequences from HCV patient plasma samples (clinical isolates); format: cell-based; details: GT1, GT3, and GT4 clinical isolates, nucleoside equivalent
[12] = system: HCV; details: cited from earlier work
[13] = incorporation by human mitochondrial RNA polymerase
[14] = single oral dose of Compound 1-A 30 mg/kg (powder in capsules)
[15] = single oral dose of Compound 1-A 100 mg/kg (powder in capsules)
[16] = single oral dose of Compound 1-A 300 mg/kg (powder in capsules)

Sequence of human mitochondrial RNA-dependent RNA polymerase (POLRMT) (O00411 42-1230): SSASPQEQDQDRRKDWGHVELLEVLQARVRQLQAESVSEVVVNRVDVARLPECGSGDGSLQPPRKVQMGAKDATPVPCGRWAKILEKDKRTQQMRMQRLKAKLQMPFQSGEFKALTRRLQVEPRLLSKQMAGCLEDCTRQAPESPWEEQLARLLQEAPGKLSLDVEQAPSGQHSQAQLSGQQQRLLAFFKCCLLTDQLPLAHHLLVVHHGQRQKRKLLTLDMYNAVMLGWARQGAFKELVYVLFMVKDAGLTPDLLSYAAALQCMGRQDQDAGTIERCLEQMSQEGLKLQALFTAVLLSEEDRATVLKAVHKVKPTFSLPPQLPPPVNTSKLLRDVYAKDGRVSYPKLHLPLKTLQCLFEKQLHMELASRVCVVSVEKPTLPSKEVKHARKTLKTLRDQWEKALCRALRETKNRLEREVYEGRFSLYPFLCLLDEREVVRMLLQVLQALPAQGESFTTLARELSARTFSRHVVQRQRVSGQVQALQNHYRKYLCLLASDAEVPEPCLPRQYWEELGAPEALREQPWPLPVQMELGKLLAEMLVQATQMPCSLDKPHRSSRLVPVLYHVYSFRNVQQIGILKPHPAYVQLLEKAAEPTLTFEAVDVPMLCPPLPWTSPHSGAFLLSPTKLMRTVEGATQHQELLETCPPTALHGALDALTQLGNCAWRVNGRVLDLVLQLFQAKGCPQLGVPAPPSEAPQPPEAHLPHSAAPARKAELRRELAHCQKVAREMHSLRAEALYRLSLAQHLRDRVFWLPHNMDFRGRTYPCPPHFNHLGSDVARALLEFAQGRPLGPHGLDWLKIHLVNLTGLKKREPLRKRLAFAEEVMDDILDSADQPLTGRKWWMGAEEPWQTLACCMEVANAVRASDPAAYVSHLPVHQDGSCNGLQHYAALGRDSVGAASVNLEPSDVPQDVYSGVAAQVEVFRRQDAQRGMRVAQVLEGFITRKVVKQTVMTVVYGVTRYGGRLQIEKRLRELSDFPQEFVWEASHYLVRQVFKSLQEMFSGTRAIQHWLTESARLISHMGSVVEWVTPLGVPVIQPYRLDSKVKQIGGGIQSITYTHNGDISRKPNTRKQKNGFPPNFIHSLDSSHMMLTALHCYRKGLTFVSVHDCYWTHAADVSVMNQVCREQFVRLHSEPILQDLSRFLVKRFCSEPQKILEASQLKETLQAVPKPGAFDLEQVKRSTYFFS

With `C[C@@]1(F)[C@H](O)C(CO[P@@](=O)(O)OP(=O)(O)OP(=O)(O)O)O[C@H]1n1ccc(=O)[nH]c1=O` (stereo partly drawn) [2′-deoxy-2′-F-2′-C-methyl UTP] the Kpol [1, 13] was 0.00034 s⁻¹.

In the case of `CNc1nc(N)nc2c1ncn2[C@@H]1O[C@H](CO[P@@](=O)(N[C@@H](C)C(=O)OC(C)C)Oc2ccccc2)[C@@H](O)[C@@]1(C)F` [Sample 1-9], the HPLC ([2]; 0 days at 25° C./60% RH) is reported as 98.7, the Observation ([2]; 0 days at 25° C./60% RH) is reported as “White solid” and the HPLC ([2]; 7 days at 25° C./60% RH) is reported as 98.1. The Observation ([2]; 7 days at 25° C./60% RH) was “White solid”, the Stability on storage [2] was “physically and chemically stable” and the HPLC ([2]; 14 days at 25° C./60% RH) was 96.4. For the same compound, the Observation ([2]; 14 days at 25° C./60% RH) was “White solid”.

For `CNc1nc(N)nc2c1ncn2[C@@H]1O[C@H](CO[P@@](=O)(N[C@@H](C)C(=O)OC(C)C)Oc2ccccc2)[C@@H](O)[C@@]1(C)F` [Sample 1-2, isopropyl((S)-(((2R,3R,4R,5R)-5-(2-amino-6-(methylamino)-9H-purin-9-yl)-4-fluoro-3-hydroxy-4-methyltetrahydrofuran-2-yl)methoxy)(phenoxy)phosphoryl)-L-alaninate], the HPLC ([2]; 0 days at 25° C./60% RH) was 99.1, the Observation ([2]; 0 days at 25° C./60% RH) was “White solid” and the HPLC ([2]; 7 days at 25° C./60% RH) was 99.2. The Observation ([2]; 7 days at 25° C./60% RH) was “White solid”, the Stability on storage [2] was “stable” and the HPLC ([2]; 14 days at 25° C./60% RH) was 99.0. For the same compound, the Observation ([2]; 14 days at 25° C./60% RH) was “White solid”.

`C[C@@]1(O)[C@H](O)[C@@H](COP(=O)(O)OP(=O)(O)OP(=O)(O)O)O[C@H]1n1cnc2c(=O)[nH]c(N)nc21` [2′-C-methyl GTP] showed a Kpol [1, 13] of 0.051 s⁻¹.

In the case of `CNc1nc(N)nc2c1ncn2[C@@H]1O[C@H](CO[P@@](=O)(N[C@@H](C)C(=O)OC(C)C)Oc2ccccc2)[C@@H](O)[C@@]1(C)F` [Sample 1-3], the HPLC ([2]; 0 days at 25° C./60% RH) is reported as 99.7, the Observation ([2]; 0 days at 25° C./60% RH) is reported as “White solid” and the HPLC ([2]; 7 days at 25° C./60% RH) is reported as 99.6. For the same compound, the Observation ([2]; 7 days at 25° C./60% RH) was “White solid”, the HPLC ([2]; 14 days at 25° C./60% RH) was 99.4 and the Observation ([2]; 14 days at 25° C./60% RH) was “White solid”.

For `C[C@@]1(F)[C@H](O)[C@@H](CO)O[C@H]1n1cnc2c(=O)[nH]c(N)nc21` [metabolite 1-7, 2-amino-9-((2R,3R,4R,5R)-3-fluoro-4-hydroxy-5-(hydroxymethyl)-3-methyltetrahydrofuran-2-yl)-1,9-dihydro-6H-purin-6-one], the Tmax [3] was 4.0 (3.0-6.0) h, the “subjects achieving HCV RNA below the lower limit of quantitation” value [4] was 17% and the “subjects achieving HCV RNA <LOQ” value ([5]; 600 mg QD, non-cirrhotic GT1b, LOQ=15 IU/mL) was 50%. The “time of peak formation after dosing” value ([5]; Part C) was “approximately 6 hours”, the “T1/2 SS” value ([6]; Part E, 600 mg/d (n=6), steady state) was 24.4 ± 9.81 h and the AUC ([6]; 150 mg/d, AUC Day 1 (AUC, for Metabolite 1-7), 150 mg/d (n=6), Day 1) was 800 ± 213 ng·h/mL. The AUC ([6]; 150 mg/d, AUC SS (AUC, for Metabolite 1-7), 150 mg/d (n=6), steady state) was 962 ± 409 ng·h/mL, the AUC ([6]; 300 mg/d, AUC Day 1 (AUC, for Metabolite 1-7), 300 mg/d (n=6), Day 1) was 1410 ± 220 ng·h/mL and the AUC ([6]; 300 mg/d, AUC SS (AUC, for Metabolite 1-7), 300 mg/d (n=6), steady state) was 1830 ± 453 ng·h/mL. The “food effect on total and trough exposure” value ([6]; in vivo) was “No food effect”, the Tmax [7] was 6.0 (4.0-8.0) h and the AUC0-last [8, 14] was 1620 ng·h/mL. The Cmax [8, 14] was 42.5 ng/mL, the T1/2 [8, 14] was 11.5 h and the Tmax [8, 14] was 12 to 24 h. The AUC0-last [8, 15] was 3030 ng·h/mL, the Cmax [8, 15] was 131 ng/mL and the T1/2 [8, 15] was 15.0 h. It also gave a Tmax [8, 15] of 4 h, an AUC0-last [8, 16] of 3660 ng·h/mL and a Cmax [8, 16] of 93.6 ng/mL. The T1/2 [8, 16] was 18.8 h, the Tmax [8, 16] was 4 to 24 h and the “subjects achieving HCV RNA below the lower limit of quantitation” value ([9]; 600 mg QD, Part E) was 17%. For the same compound, the “day on which steady state of concentrations was reached” value ([9]; subjects with cirrhosis) was 5 days, the AUC0-last [10] was 9640 ng·h/mL and the Cmax [10] was 541 ng/mL. For the same compound, the T1/2 [10] was 15.3 h and the Tmax [10] was 6 to 8 h.

For `CNc1nc(N)nc2c1ncn2[C@@H]1O[C@H](CO[P@@](=O)(N[C@@H](C)C(=O)OC(C)C)Oc2ccccc2)[C@@H](O)[C@@]1(C)F` [Sample 1-1, isopropyl((S)-(((2R,3R,4R,5R)-5-(2-amino-6-(methylamino)-9H-purin-9-yl)-4-fluoro-3-hydroxy-4-methyltetrahydrofuran-2-yl)methoxy)(phenoxy)phosphoryl)-L-alaninate], the HPLC ([2]; 0 days at 25° C./60% RH) was 98.6, the Observation ([2]; 0 days at 25° C./60% RH) was “White solid” and the HPLC ([2]; 7 days at 25° C./60% RH) was 98.7. For the same compound, the Observation ([2]; 7 days at 25° C./60% RH) was “White solid”, the Stability on storage [2] was “stable” and the HPLC ([2]; 14 days at 25° C./60% RH) was 98.5. For the same compound, the Observation ([2]; 14 days at 25° C./60% RH) was “White solid”.

For `CC(C)OC(=O)[C@H](C)N[P@](=O)(OC[C@H]1O[C@@H](n2ccc(=O)[nH]c2=O)[C@](C)(F)[C@@H]1O)Oc1ccccc1` [sofosbuvir], the EC95 [11] is listed as “greater than 100 ng/mL”, the “HCV RNA reduction” value ([12]; after 1 day of 400 mg monotherapy, GT1a HCV-infected subjects) is listed as −2 log 10 IU/mL and the steady-state trough concentration ([12]; similar dosage form (400 mg QD)) is listed as “approximately 100 ng/mL”.

In the case of `C[C@@]1(F)[C@H](O)[C@@H](COP(=O)(O)OP(=O)(O)OP(=O)(O)O)O[C@H]1n1cnc2c(=O)[nH]c(N)nc21` [metabolite 1-6], the “incorporation by human mitochondrial RNA polymerase” value [1] is reported as “poorly incorporated”, the “Relative Efficiency” value ([1]; (Kpol/Kd, app)analog nucleotide/(Kpol/Kd, app)natural nucleotide) is reported as 2.2 × 10^−6 and the Kpol [1, 13] is reported as 0.0017 s⁻¹. For the same compound, the “Kpol/Kd, app” value [1, 13] was 8.3 M⁻¹ s⁻¹ and the Kd ([1]; incorporation by human mitochondrial RNA polymerase, read-out: Kd, app) was 204 µM.
